Converted amounts (≈) assume the structure as drawn.
How the values were obtained:
[1] = Induction of hemolysis in rabbit RBC at 32 ug/ml incubated for 1 hr; format: toxicity, cell-based, Oryctolagus cuniculus, Erythrocyte; details: red blood cells, at 32 µg/mL, read-out: Activity
[2] = Cytotoxicity against HUVEC assessed as cell viability at 64 ug/ml incubated for 24 hrs by CCK-8 assay; format: toxicity, cell-based; details: human, HUVEC cells, at 64 µg/mL, read-out: Activity
in vitro = details: human, Caco-2 cells; at 64 µg/mL
[3] = Induction of hemolysis in rabbit RBC at 16 ug/ml incubated for 1 hr; format: toxicity, cell-based, Oryctolagus cuniculus, Erythrocyte; details: red blood cells, at 16 µg/mL, read-out: Activity
[4] = Induction of hemolysis in rabbit RBC at 64 ug/ml incubated for 1 hr; format: toxicity, cell-based, Oryctolagus cuniculus, Erythrocyte; details: red blood cells, at 64 µg/mL, read-out: Activity
[5] = Oral bioavailability in Sprague-Dawley rat at 5 mg/kg by LC-MS analysis; format: ADME, organism-based; details: in vivo
Candida tropicalis [6] = assay: Antifungal activity against Candida tropicalis ATCC750; format: functional
Pichia kudriavzevii [7] = assay: Antifungal activity against Candida krusei 629; format: functional
Candida albicans [8] = assay: Antifungal activity against Candida albicans 305; format: functional
[Candida] auris [9] = Antifungal activity against Candida auris D12; format: functional; details: Candidozyma auris
Candida albicans [10] = assay: Antifungal activity against Candida albicans 25#; format: functional
Cryptococcus neoformans [11] = assay: Antifungal activity against Cryptococcus neoformans 32605; format: functional
[12] = target: T1, Lanosterol 14-alpha demethylase (Candida albicans (strain SC5314 / ATCC MYA-2876) (Yeast), UniProt P10613); assay: Inhibition of CYP51 in Candida albicans SC5314 assessed as lanosterol level at 0.0625 ug/ml measured after 12 hrs by GC-MS analysis (reference value: 2.18%); set-up: scale not given: the % may be the effect or the level left; details: dose 0.0625 µg/ml
T1 sequence (P10613 whole entry): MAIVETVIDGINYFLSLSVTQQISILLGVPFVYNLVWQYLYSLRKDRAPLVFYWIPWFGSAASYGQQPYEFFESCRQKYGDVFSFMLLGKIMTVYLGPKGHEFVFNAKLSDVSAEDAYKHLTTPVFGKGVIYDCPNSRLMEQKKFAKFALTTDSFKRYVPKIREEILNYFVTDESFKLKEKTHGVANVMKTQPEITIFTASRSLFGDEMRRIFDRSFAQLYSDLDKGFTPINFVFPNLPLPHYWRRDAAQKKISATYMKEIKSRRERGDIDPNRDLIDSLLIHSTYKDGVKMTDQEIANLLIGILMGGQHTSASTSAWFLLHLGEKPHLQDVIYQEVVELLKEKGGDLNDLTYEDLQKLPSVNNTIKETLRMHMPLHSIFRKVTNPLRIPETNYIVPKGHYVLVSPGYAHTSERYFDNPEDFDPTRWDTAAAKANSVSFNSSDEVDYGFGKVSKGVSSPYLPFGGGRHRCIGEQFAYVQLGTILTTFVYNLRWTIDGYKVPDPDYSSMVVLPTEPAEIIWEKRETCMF

[13] = Half life in Sprague-Dawley rat at 2 mg/kg, iv by LC-MS analysis; format: ADME, organism-based; details: in vivo
[Candida] auris [14] = Antifungal activity against Candida auris BS12372; format: functional; details: Candidozyma auris
[15] = Cmax in Sprague-Dawley rat at 5 mg/kg, po by LC-MS analysis; format: ADME, organism-based; set-up: dose 5 mg/kg, route po; details: in vivo
Aspergillus fumigatus [16] = assay: Antifungal activity against Aspergillus fumigatus 7544 infected in ICR mouse assessed as survival rate at 60 mg/kg, po qd infected with fungus for 2 hrs prior to compound addition for 7 days and measured for 20 days; format: functional; details: time 20 day
[17] = target: T1, Lanosterol 14-alpha demethylase; assay: Inhibition of CYP51 in Candida albicans SC5314 assessed as sterol level at 0.0625 ug/ml measured after 12 hrs by GC-MS analysis (reference value: 25.23%); set-up: scale not given: the % may be the effect or the level left; details: dose 0.0625 µg/ml
[18] = Half life in Sprague-Dawley rat at 5 mg/kg, po by LC-MS analysis; format: ADME, organism-based; details: in vivo
Candida albicans [19] = assay: Antifungal activity against Candida albicans 162; format: functional
Candida albicans [20] = assay: Antifungal activity against Candida albicans 14#; format: functional
Nannizzia gypsea = assay: Antifungal activity against Microsporum gypseum; format: functional
[21] = target: T1, Lanosterol 14-alpha demethylase; assay: Inhibition of CYP51 in Candida albicans SC5314 assessed as eburicol level at 0.0625 ug/ml measured after 12 hrs by GC-MS analysis (reference value: 0.00%); set-up: scale not given: the % may be the effect or the level left; details: dose 0.0625 µg/ml
Candida tropicalis [22] = assay: Antifungal activity against Candida tropicalis 112936; format: functional
[23] = AUC(0 to infinity) in Sprague-Dawley rat at 2 mg/kg, iv by LC-MS analysis; format: ADME, organism-based; set-up: time infinity, dose 2 mg/kg, route iv; details: in vivo
Aspergillus fumigatus [24] = assay: Antifungal activity against Aspergillus fumigatus 7544 incubated for 48 hrs by microbroth dilution method; format: functional
Candida albicans [25] = assay: Antifungal activity against Candida albicans Y0109; format: functional
Candida parapsilosis [26] = assay: Antifungal activity against Candida parapsilosis 700; format: functional; details: Lodderomyces parapsilosis
Candida albicans [27] = assay: Antifungal activity against Candida albicans 20#; format: functional
Pichia kudriavzevii [28] = assay: Antifungal activity against Candida krusei 463; format: functional
Nakaseomyces glabratus [29] = assay: Antifungal activity against Candida glabrata 537; format: functional
Candida albicans [30] = assay: Antifungal activity against Candida albicans SC5314 incubated for 24 hrs by microbroth dilution method; format: functional
Candida albicans [31] = assay: Antifungal activity against Candida albicans 28#; format: functional
Aspergillus fumigatus [32] = assay: Antifungal activity against Aspergillus fumigatus 7544 infected in ICR mouse assessed as survival rate at 20 mg/kg, po qd infected with fungus for 2 hrs prior to compound addition for 7 days and measured for 20 days; format: functional; details: time 20 day
Trichophyton rubrum = assay: Antifungal activity against Trichophyton rubrum cmccftla; format: functional
Candida albicans [33] = assay: Antifungal activity against Candida albicans 12#; format: functional
Pichia kudriavzevii [34] = assay: Antifungal activity against Candida krusei 397; format: functional
Nakaseomyces glabratus [35] = assay: Antifungal activity against Candida glabrata ATCC2001; format: functional
Pichia kudriavzevii [36] = assay: Antifungal activity against Candida krusei 467; format: functional
Candida parapsilosis [37] = assay: Antifungal activity against Candida parapsilosis 90018; format: functional; details: Lodderomyces parapsilosis
[38] = AUC(0 to infinity) in Sprague-Dawley rat at 5 mg/kg, po by LC-MS analysis; format: ADME, organism-based; set-up: time infinity, dose 5 mg/kg, route po; details: in vivo
[39] = target: T1, Lanosterol 14-alpha demethylase; assay: Inhibition of CYP51 in Candida albicans SC5314 assessed as ergosterol level at 0.0625 ug/ml measured after 12 hrs by GC-MS analysis (reference value: 72.58%); set-up: scale not given: the % may be the effect or the level left; details: dose 0.0625 µg/ml
Cryptococcus neoformans [40] = assay: Antifungal activity against Cryptococcus neoformans H99 incubated for 72 hrs by microbroth dilution method; format: functional
Candida parapsilosis [41] = assay: Antifungal activity against Candida parapsilosis 22019; format: functional; details: Lodderomyces parapsilosis
[42] = Tmax in Sprague-Dawley rat at 5 mg/kg, po by LC-MS analysis; format: ADME, organism-based; details: in vivo
Candida parapsilosis [43] = assay: Antifungal activity against Candida parapsilosis 660; format: functional; details: Lodderomyces parapsilosis
[Candida] auris [44] = Antifungal activity against Candida auris 791; format: functional; details: Candidozyma auris

Which hemolysis at 1 h, 32 ug/ml [1] does the source give for `C[C@@H]1[C@H](O)[C@@H](C)/C=C/C=C/C=C/C=C/C=C/C=C/C=C/[C@H](O[C@@H]2O[C@H](C)[C@@H](O)[C@H](N)[C@@H]2O)C[C@@H]2O[C@](O)(C[C@@H](O)C[C@@H](O)[C@H](O)CC[C@@H](O)C[C@@H](O)CC(=O)O[C@H]1C)C[C@H](O)[C@H]2C(=O)O` [AMPHOTERICIN B] here?
The hemolysis at 1 h, 32 ug/ml was 65.2%.

And the viability at 24 h, 64 ug/ml [2]?
The viability at 24 h, 64 ug/ml was 78.2%.

And the viability at 24 h, 64 ug/ml (in vitro)?
The viability at 24 h, 64 ug/ml was 63.3%.

And the hemolysis at 1 h, 16 ug/ml [3]?
The hemolysis at 1 h, 16 ug/ml was 24.7%.

What about the hemolysis at 1 h, 64 ug/ml [4] of the same compound?
The hemolysis at 1 h, 64 ug/ml was 102%.

Which results are given for `C[C@@H](c1ncncc1F)[C@](O)(Cn1cncn1)c1ccc(F)cc1F` [VORICONAZOLE]?
bioavailability [5]: 26%; MIC (Candida tropicalis [6]): 8 µg/mL (≈ 22.9 µM); MIC (Pichia kudriavzevii [7]): 0.0625 µg/mL (≈ 0.179 µM); MIC (Candida albicans [8]): > 16 µg/mL; MIC ([Candida] auris [9]): 1 µg/mL (≈ 2.86 µM); MIC (Candida albicans [10]): > 64 µg/mL; MIC (Cryptococcus neoformans [11]): 0.0156 µg/mL (≈ 0.0447 µM); Activity [12]: 5.38%; half-life [13]: 234 min; viability at 24 h, 64 ug/ml [2]: 93.4%; MIC ([Candida] auris [14]): 2 µg/mL (≈ 5.73 µM); viability at 24 h, 64 ug/ml (in vitro): 103%; Cmax [15]: 877 ng/mL; Activity (Aspergillus fumigatus [16]): 100%; Activity [17]: 5.84%; half-life [18]: 40.2 min; MIC (Candida albicans [19]): > 64 µg/mL; MIC (Candida albicans [20]): > 64 µg/mL; MIC (Nannizzia gypsea): 0.25 µg/mL (≈ 0.716 µM); Activity [21]: 87.15%; MIC (Candida tropicalis [22]): > 16 µg/mL; AUC(0-inf) [23]: 7200 ng·h/mL; MIC (Aspergillus fumigatus [24]): 0.25 µg/mL (≈ 0.716 µM); MIC (Candida albicans [25]): 0.0156 µg/mL (≈ 0.0447 µM); MIC (Candida parapsilosis [26]): 0.0313 µg/mL (≈ 0.0896 µM); MIC (Candida albicans [27]): ≤ 0.0313 µg/mL; MIC (Pichia kudriavzevii [28]): 0.0625 µg/mL (≈ 0.179 µM); MIC (Nakaseomyces glabratus [29]): 0.125 µg/mL (≈ 0.358 µM); MIC (Candida albicans [30]): 0.0313 µg/mL (≈ 0.0896 µM); MIC (Candida albicans [31]): ≤ 0.0313 µg/mL; Activity (Aspergillus fumigatus [32]): 60%; MIC (Trichophyton rubrum): 0.0625 µg/mL (≈ 0.179 µM); MIC (Candida albicans [33]): > 64 µg/mL; MIC (Pichia kudriavzevii [34]): 0.125 µg/mL (≈ 0.358 µM); MIC (Nakaseomyces glabratus [35]): 0.125 µg/mL (≈ 0.358 µM); MIC (Pichia kudriavzevii [36]): 0.125 µg/mL (≈ 0.358 µM); MIC (Candida parapsilosis [37]): ≤ 0.0313 µg/mL; AUC(0-inf) [38]: 2530 ng·h/mL; Activity [39]: 1.63%; MIC (Cryptococcus neoformans [40]): 0.0313 µg/mL (≈ 0.0896 µM); MIC (Candida parapsilosis [41]): 0.0313 µg/mL (≈ 0.0896 µM); hemolysis at 1 h, 64 ug/ml [4]: 1.07%; Tmax [42]: 53.4 min; MIC (Candida parapsilosis [43]): ≤ 0.0313 µg/mL; MIC ([Candida] auris [44]): 2 µg/mL (≈ 5.73 µM)

Source: ChEMBL document CHEMBL5150076, “Discovery of Novel Orally Bioavailable Triazoles with Potent and Broad-Spectrum Antifungal Activity In Vitro and In Vivo” (J Med Chem, 2022)
